{"source": "patent US10772886B2", "about": "“CXCR-2 inhibitors for treating crystal arthropathy disorders” (ARDEA BIOSCIENCES, INC., priority 2016, dated 2020)", "key": {"[1]": {"tested_on": "rat air pouch model of crystal-induced arthropathy (MSU)", "experiment": "Rat air pouch model, Example 8 (Compound 3 in combination with colchicine)", "assay_type": "in vivo", "protocol": "(§1) Sodium hydroxide (40 g, Fisher Scientific) was dissolved in de-ionized water (100 mL, dH2O) to provide a 10N solution. Uric acid (16 g, Sigma) was added to de-ionized water (3400 mL) containing sodium hydroxide solution (11.8 mL, 10N) and heated to 60° C. with constant stirring. […] The resulting clear solution was cooled to 4-8° C., resulting in the formation of crystals, which were isolated by filtration, washed three times with de-ionized wa[…]) and dried at 37° C. The dried mono sodium urate crystals were sifted into an air-tight container for storage. […] Methylcellulose (0.4 g, Sigma) was dissolved in de-ionized water (100 mL) to provide a 0.4% solution used as vehicle. […] Test compounds were suspended in vehicle to provide the desired concentrations, and diluted accordingly. […] Male Sprague-Dawley rats (Charles River Laboratories, 160-180 g) were received, individually examined and housed in cages of five rats each. The animals were in apparent good health with no clinical signs of disease or distress. The rats were placed in quarantine with daily inspections, ear notched for identification purposes and shaved at the nape of the neck. The rats were anesthetized (isoflurane), and the nape of the neck was cleansed with 70% isopropanol (Butler Animal Health Supply) followed by povidone-iodine solution (Ricca Chemical Co.). Sterile air (30 mL, 0.2 μm, Millipore) was injected subcutaneously using a 23 G×11⁄2 inch needle fixed to a 30 mL syringe. The rats were returned to routine housing with no adverse reactions observed. The rats were anesthetized (isoflurane), and the nape of the neck was cleansed with 70% isopropanol (Butler Animal Health Supply) followed by povidone-iodine solution (Ricca Chemical Co.). Sterile air (15 mL, 0.11 μm, Millipore) was injected subcutaneously using a 23 G×11⁄2 inch needle fixed to a 20 mL syringe. The rats were returned to routine housing with no adverse reactions observed. The rats were weighed and sorted into treatment groups based on average body weight. As appropriate, the rats were dosed orally with test compound or vehicle (saline alone). […] Thirty minutes after SC injection or two hours after PO dosing, MSU (15 mL) was injected into the air pouch using an 18 G×2 inch needle fitted to a 20 mL syringe. Control group was injected with 15 mL sterile saline (vehicle). The injection sites were closed (collodion, Macron) and the rats returned to their cages with no adverse effects observed. Four hours after MSU/saline injection, the rats were anesthetized and heparinized saline (5 mL, 10 U/mL) was injected into the air pouch. […] An aliquot of the exudate was transferred to green Eppendorf tubes for total white blood cell (WBC) measurement. After allowing the MSU crystals to settle out for ten minutes, an aliquot of the exudate was transferred to heparinized microtainer tubes (Becton Dickinson) for differential white blood cell counts. The remainder of the exudate was centrifuged and an aliquot of the supernatants was dispensed to labeled clear Eppendorf tubes and stored at -80° C. The rats were exsanguinated into pre-chilled serum separator tubes, processed to serum, and 0.5 mL aliquot was stored at -80° C. in labeled Eppendorf tubes. […] [table]"}, "[2]": {"tested_on": "rat air pouch model of crystal-induced arthropathy (MSU)", "experiment": "Rat air pouch model of crystal-induced arthropathy, Example 4 (Compound 2)", "assay_type": "in vivo", "protocol": "as §1, with “Sterile air (30 mL, 0.2 μm, Millipore) was injected subcutaneously using a 23 G×11⁄2 inch needle fixed to a 30 mL syringe.” left out, “Sterile air (15 mL, 0.11 μm, Millipore) was injected subcutaneously using a 23 G×11⁄2 inch needle fixed to a 20 mL syringe.” left out"}, "[3]": {"conditions": "10.0 umol/kg PO + Colchicine 0.3 mpk SC, Group 10"}}}
{"smiles": "COc1cc2c(c(OC)c1OC)-c1ccc(OC)c(=O)cc1[C@@H](NC(C)=O)CC2", "note": "[Colchicine, COLCHICINE, reference compound]", "values": [{"measurement": "Avg Exudate Vol", "setting": "[1]; 0.3 mpk SC, Group 3", "value": 11.88, "unit": "mL"}, {"measurement": "Avg Total WBC", "setting": "[1]; 0.3 mpk SC, Group 3", "value": "170 ×10^6"}, {"measurement": "Neutrophils", "setting": "[1]; 0.3 mpk SC, Group 3", "value": "121.8 ×10^6"}, {"measurement": "Avg Exudate Vol", "setting": "[1]; 0.5 mpk SC, Group 4", "value": 7.62, "unit": "mL"}, {"measurement": "Avg Total WBC", "setting": "[1]; 0.5 mpk SC, Group 4", "value": "96.3 ×10^6"}, {"measurement": "Neutrophils", "setting": "[1]; 0.5 mpk SC, Group 4", "value": "64.6 ×10^6"}, {"measurement": "Avg Exudate Vol", "setting": "[1]; 1.0 mpk SC, Group 5", "value": 6.8, "unit": "mL"}, {"measurement": "Avg Total WBC", "setting": "[1]; 1.0 mpk SC, Group 5", "value": "41.5 ×10^6"}, {"measurement": "Neutrophils", "setting": "[1]; 1.0 mpk SC, Group 5", "value": "7.6 ×10^6"}, {"measurement": "Avg Exudate Vol", "setting": "[2]; 1 mg/kg SC, Group 3", "value": "***6.4 mL"}, {"measurement": "Avg Total WBC", "setting": "[2]; 1 mg/kg SC, Group 3", "value": "**17.6 ×10^6"}, {"measurement": "Neutrophils", "setting": "[2]; 1 mg/kg SC, Group 3", "value": "**11.0 ×10^6"}]}
{"smiles": "CC[C@@H](Nc1c(Nc2cccc(C(=O)N(C)C)c2O)c(=O)c1=O)c1ccc(C)o1", "note": "[Compound 2, (R)-2-hydroxy-N,N-dimethyl-3-((2-((1-(5-methylfuran-2-yl)propyl)amino)-3,4-dioxocyclobut-1-en-1-yl)amino)benzamide]", "values": [{"measurement": "Avg Exudate Vol", "setting": "[2]; 0.3 mg/kg PO, Group 4", "value": 10.1, "unit": "mL"}, {"measurement": "Avg Total WBC", "setting": "[2]; 0.3 mg/kg PO, Group 4", "value": "145.2 ×10^6"}, {"measurement": "Neutrophils", "setting": "[2]; 0.3 mg/kg PO, Group 4", "value": "114.2 ×10^6"}, {"measurement": "Avg Exudate Vol", "setting": "[2]; 3 mg/kg PO, Group 5", "value": 9.3, "unit": "mL"}, {"measurement": "Avg Total WBC", "setting": "[2]; 3 mg/kg PO, Group 5", "value": "*33.4 ×10^6"}, {"measurement": "Neutrophils", "setting": "[2]; 3 mg/kg PO, Group 5", "value": "*19.8 ×10^6"}, {"measurement": "Avg Exudate Vol", "setting": "[2]; 30 mg/kg PO, Group 6", "value": "***6.8 mL"}, {"measurement": "Avg Total WBC", "setting": "[2]; 30 mg/kg PO, Group 6", "value": "*51.7 ×10^6"}, {"measurement": "Neutrophils", "setting": "[2]; 30 mg/kg PO, Group 6", "value": "**16.0 ×10^6"}]}
{"smiles": "C[C@@H](Oc1cc(NS(=O)(=O)N2CCC2)nc(SCc2cccc(F)c2F)n1)[C@@H](O)CO", "note": "[Compound 3, N-(2-((2,3-difluorobenzyl)thio)-6-(((2R,3S)-3,4-dihydroxybutan-2-yl)oxy)pyrimidin-4-yl)azetidine-1-sulfonamide]", "values": [{"measurement": "Avg Exudate Vol", "setting": "[1]; [3]", "value": 9.46, "unit": "mL"}, {"measurement": "Avg Total WBC", "setting": "[1]; [3]", "value": "69.1 ×10^6"}, {"measurement": "Neutrophils", "setting": "[1]; [3]", "value": "53.1 ×10^6"}, {"measurement": "Avg Exudate Vol", "setting": "[1]; 10.0 umol/kg PO, Group 6", "value": 10.93, "unit": "mL"}, {"measurement": "Avg Total WBC", "setting": "[1]; 10.0 umol/kg PO, Group 6", "value": "118 ×10^6"}, {"measurement": "Neutrophils", "setting": "[1]; 10.0 umol/kg PO, Group 6", "value": "83.3 ×10^6"}, {"measurement": "Avg Exudate Vol", "setting": "[1]; 30.0 umol/kg PO, Group 7", "value": 8.42, "unit": "mL"}, {"measurement": "Avg Total WBC", "setting": "[1]; 30.0 umol/kg PO, Group 7", "value": "70.5 ×10^6"}, {"measurement": "Neutrophils", "setting": "[1]; 30.0 umol/kg PO, Group 7", "value": "40.3 ×10^6"}, {"measurement": "Avg Exudate Vol", "setting": "[1]; 100 umol/kg PO, Group 8", "value": 6.56, "unit": "mL"}, {"measurement": "Avg Total WBC", "setting": "[1]; 100 umol/kg PO, Group 8", "value": "56.1 ×10^6"}, {"measurement": "Neutrophils", "setting": "[1]; 100 umol/kg PO, Group 8", "value": "25.2 ×10^6"}, {"measurement": "Avg Exudate Vol", "setting": "[1]; 300 umol/kg PO, Group 9", "value": 5.7, "unit": "mL"}, {"measurement": "Avg Total WBC", "setting": "[1]; 300 umol/kg PO, Group 9", "value": "24.7 ×10^6"}, {"measurement": "Neutrophils", "setting": "[1]; 300 umol/kg PO, Group 9", "value": "5.3 ×10^6"}]}
